Assay results published in patent US10583117B2, “Oxo-M and 4-PPBP induction of tenogenic differentiation of perivascular tendon stem cells” (The Trustees of Columbia University in the City of New York, priority 2016, dated 2020).
“Also recorded” adds a separate entry of the source.

Tests used:
[1] = system: ERK1/2; test: Western blot, phosphorylation of ERK1/2 in PTSCs; format: cell-based, rat; settings: 12 hours treatment in PTSCs
Experimental: (§1) Activation of FAK and ERK1/2 signaling by Oxo-M and 4-PPBP was further confirmed by western blot and siRNA knockdown (KD). […] With combined Oxo-M and 4-PPBP, both P-FAK and P-ERK1/2 were detected (FIG. 3A). […] In addition, siRNA KD of FAK and ERK1/2 were performed as described previously (Lee, et al., 2015, supra), which is hereby incorporated herein by reference in its entirety for all purposes.

[2] = system: FAK; test: Western blot, P-FAK in CD146- tendon cells; format: cell-based, rat; settings: CD146− tendon cells (excluding PTSCs)
Experimental: as §1

[3] = system: FAK; test: Western blot, phosphorylation of FAK in PTSCs; format: cell-based, rat; settings: 12 hours treatment in PTSCs
Experimental: as §1

[4] = system: CD146+ perivascular tendon stem/progenitor cells (PTSCs); format: cell-based, rat
[5] = system: fully transected rat patellar tendons; test: Healing of fully transected rat patellar tendon, delivery via fibrin glue; format: in vivo; settings: for tendon healing, H&E staining: Oxo-M 1 mM, 4-PPBP 10 μM in fibrin; for alignment of collagen fibers (Picrosirius Red, automated digital image processing): n=6; for effect on induced tenogenic differentiation of PTSCs and tendon healing: overall statement

C[N+](C)(C)CC#CCN1CCCC1=O [Oxo-M, Oxotremorine methiodide]
phosphorylation of ERK1/2 (P-ERK1/2) [1]: resulted in phosphorylation | P-FAK band [2]: no P-FAK band | phosphorylation of FAK (P-FAK) [3]: resulted in phosphorylation | Scx gene expression [4]: significant increases; also recorded: significantly increased | Tn-C gene expression [4]: significant increases; also recorded: significantly increased | VIM gene expression [4]: significant increases; also recorded: significantly increased | collagen fibers, polarized Picrosirius Red images ([5]; 1 week post-op): disrupted collagen structure | tendon healing, H&E staining ([5]; 1 week post-op): disorganized scar-like tissue | collagen fibers, polarized Picrosirius Red images ([5]; 2 weeks post-op): disrupted collagen structure | collagen in healing zone, Masson's Trichrome staining ([5]; 2 weeks post-op): disrupted collagen structure | tendon healing, H&E staining ([5]; 2 weeks post-op): scar-like healing | alignment of collagen fibers (Picrosirius Red, automated digital image processing) [5]: disoriented fibers | effect on induced tenogenic differentiation of PTSCs and tendon healing [5]: only minimal effect

O=C(O)/C=C\C(=O)O.c1ccc(CCCCN2CCC(c3ccccc3)CC2)cc1 [4-PPBP, 4-phenyl-1-(4-phenylbutyl)-piperidine maleate]
P-FAK band [2]: no P-FAK band | phosphorylation of FAK (P-FAK) [3]: resulted in phosphorylation | COL-I gene expression ([4]; maleate): elevated; also recorded: significantly increased | COL-III gene expression ([4]; maleate): elevated; also recorded: significantly increased | collagen fibers, polarized Picrosirius Red images ([5]; 1 week post-op): disrupted collagen structure | tendon healing, H&E staining ([5]; 1 week post-op): disorganized scar-like tissue | collagen fibers, polarized Picrosirius Red images ([5]; 2 weeks post-op): disrupted collagen structure | collagen in healing zone, Masson's Trichrome staining ([5]; 2 weeks post-op): disrupted collagen structure | tendon healing, H&E staining ([5]; 2 weeks post-op): scar-like healing | alignment of collagen fibers (Picrosirius Red, automated digital image processing) [5]: disoriented fibers | effect on induced tenogenic differentiation of PTSCs and tendon healing [5]: only minimal effect
